Consider two molecules from patent publication US9686989B2, “Synergistic combination of a flurochloridone compound and zinc pyrithione for dry film protection” (Rohm and Haas Company, priority 2013, dated 2017).

In this assay the test system is Chlorella sp. ATCC 7516. Briefly: Algal efficacy testing of dry paint film (modified ASTM 5589, 6-well plates). Format: cell-based. To be noted: 672 h, 4 weeks, pass level ≧75% inhibition. On the procedure:
Slurries containing 33% antimicrobial active ingredient (flurochloridone) were post added to a white, acrylic/silicone based outdoor paint free of biocides to give a total active ingredient concentration of 10000 and 1000 ppm respectively. KATHON™ 893T (100% OIT) was post added to a white, acrylic/silicone based outdoor paint free of biocides to give a total active ingredient concentration of 10000 and 1000 ppm respectively. These paints were then diluted with an antimicrobial free acrylic/silicone based paint and mixed to prepare targeted concentrations of antimicrobial compounds for the testing. The total biocides concentrations tested were 125, 250, 500, 1000, 2000 and 5000 ppm. After biocides addition or dilution, the paints were mixed 90 seconds with the horse power shaker (AXEL 75M3372/Agitateur SO-10MI) until uniformity was achieved. […]
Each well that contains a tested coupon was inoculated with 1750 μl of algal suspensions (1×10^6 cfu/ml) making sure that the whole surface (paint film as well as the agar surrounding it) was evenly covered. […] The total area inhibited was evaluated at the end of each week according to percent area covered in 5% increments
At the end of the four week incubation period, the samples were scored for percent inhibition regarding color intensity compared to the blank sample. […]
The SI is calculated based on F. C. […]

On to `CCCCCCCCn1sccc1=O` [OIT, 2-n-octyl-4-isothiazolin-3-one], for which the inhibition at 2000 ppm (total conc 2000 ppm in paint) turned out to be 65%. On to `O=C1C(Cl)C(CCl)CN1c1cccc(C(F)(F)F)c1` (centres unmarked) [Flurochloridone, 3-chloro-4-(chloromethyl)-1-[3-(trifluoromethyl)phenyl]-2-pyrrolidinone], for which the inhibition at 5000 ppm (total conc 5000 ppm in paint) is 90%.
